Measurements from US12077503B2, “Substituted cyclic amides and their use as herbicides” (FMC CORPORATION, priority 2015, dated 2024).

Key:
Test in all cases: Test G Post-Emergence Protocol
Format in all cases: in vivo
[1] = tested on: barnyardgrass (Echinochloa crus-galli); details: Echinochloa crus-galli, post-emergence, 312 h; for pest or weed control at 15.625 g/ha: 15.625 g ai/ha, evaluated after 13 days (100=total damage to plant; 0=no damage to plant), read-out: Barnyardgrass damage rating; for pest or weed control at 62.5 g/ha: 62.5 g ai/ha, read-out: Barnyardgrass damage rating (100=total damage to plant; 0=no damage to plant); for pest or weed control at 62.5 g/ha / pest or weed control at 250 g/ha: evaluated after 13 days; for pest or weed control at 250 g/ha: 250 g ai/ha, read-out: damage to plant, Barnyardgrass (100=total damage to plant; 0=no damage to plant)
How it was run: (§1)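 Values are percent visual injury at 13 days after treatment (0 none, 100 total). Treatment was a post-emergence spray at 15.625, 62.5 or 250 g/ha on 8-day-old pot plants kept at 24/16 °C.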

[2] = tested on: redroot pigweed (Amaranthus retroflexus); details: Amaranthus retroflexus, post-emergence, 312 h; for pest or weed control at 15.625 g/ha: 15.625 g ai/ha, evaluated after 13 days (100=total damage to plant; 0=no damage to plant), read-out: Pigweed, Redroot damage rating; for pest or weed control at 62.5 g/ha: 62.5 g ai/ha, read-out: Pigweed, Redroot damage rating (100=total damage to plant; 0=no damage to plant); for pest or weed control at 62.5 g/ha / pest or weed control at 250 g/ha: evaluated after 13 days; for pest or weed control at 250 g/ha: 250 g ai/ha, read-out: damage to plant, Pigweed, Redroot (100=total damage to plant; 0=no damage to plant)
How it was run: as §1

[3] = tested on: ivy-leaved morning glory (Ipomoea hederacea); details: Ipomoea, post-emergence, 312 h; for pest or weed control at 15.625 g/ha: 15.625 g ai/ha, evaluated after 13 days (100=total damage to plant; 0=no damage to plant), read-out: Morningglory, Ivy-leaved damage rating; for pest or weed control at 62.5 g/ha: 62.5 g ai/ha, read-out: Morningglory, Ivy-leaved damage rating (100=total damage to plant; 0=no damage to plant); for pest or weed control at 62.5 g/ha / pest or weed control at 250 g/ha: evaluated after 13 days; for pest or weed control at 250 g/ha: 250 g ai/ha, read-out: damage to plant, Morningglory, Ivy-leaved (100=total damage to plant; 0=no damage to plant)
How it was run: as §1

corn (Zea mays) = details: Zea mays, post-emergence, 312 h; for plant injury at 15.625 g/ha: 15.625 g ai/ha, evaluated after 13 days (100=total damage to plant; 0=no damage to plant), read-out: Corn damage rating; for plant injury at 62.5 g/ha: 62.5 g ai/ha, read-out: Corn damage rating (100=total damage to plant; 0=no damage to plant); for plant injury at 62.5 g/ha / plant injury at 250 g/ha: evaluated after 13 days; for plant injury at 250 g/ha: 250 g ai/ha, read-out: damage to plant, Corn (100=total damage to plant; 0=no damage to plant)
How it was run: as §1

[4] = tested on: giant foxtail (Setaria faberi); details: Setaria faberi, post-emergence, 312 h; for pest or weed control at 15.625 g/ha: 15.625 g ai/ha, evaluated after 13 days (100=total damage to plant; 0=no damage to plant), read-out: Foxtail, Giant damage rating; for pest or weed control at 62.5 g/ha: 62.5 g ai/ha, read-out: Foxtail, Giant damage rating (100=total damage to plant; 0=no damage to plant); for pest or weed control at 62.5 g/ha / pest or weed control at 250 g/ha: evaluated after 13 days; for pest or weed control at 250 g/ha: 250 g ai/ha, read-out: damage to plant, Foxtail, Giant (100=total damage to plant; 0=no damage to plant)
How it was run: as §1

[5] = tested on: velvetleaf (Abutilon theophrasti); details: Abutilon theophrasti, post-emergence, 312 h; for pest or weed control at 15.625 g/ha: 15.625 g ai/ha, evaluated after 13 days (100=total damage to plant; 0=no damage to plant), read-out: Velvetleaf damage rating; for pest or weed control at 62.5 g/ha: 62.5 g ai/ha, read-out: Velvetleaf damage rating (100=total damage to plant; 0=no damage to plant); for pest or weed control at 62.5 g/ha / pest or weed control at 250 g/ha: evaluated after 13 days; for pest or weed control at 250 g/ha: 250 g ai/ha, read-out: damage to plant, Velvetleaf (100=total damage to plant; 0=no damage to plant)
How it was run: as §1

In the case of `CN1C[C@@H](c2ccc(C(F)(F)F)cc2)[C@H](C(=O)Nc2ccccc2)C1=O` (racemic) [Compound 1404], the pest or weed control at 15.625 g/ha [1] is reported as 10%, the pest or weed control at 62.5 g/ha [1] is reported as 20% and the pest or weed control at 250 g/ha [1] is reported as 40%. It also gave a pest or weed control at 15.625 g/ha [2] of 20%, a pest or weed control at 62.5 g/ha [2] of 40% and a pest or weed control at 250 g/ha [2] of 30%. It also gave a pest or weed control at 15.625 g/ha [3] of 0%, a pest or weed control at 62.5 g/ha [3] of 10% and a pest or weed control at 250 g/ha [3] of 30%. The plant injury at 15.625 g/ha (corn (Zea mays)) was 20%, the plant injury at 62.5 g/ha (corn (Zea mays)) was 20% and the plant injury at 250 g/ha (corn (Zea mays)) was 40%. It also gave a pest or weed control at 15.625 g/ha [4] of 0%, a pest or weed control at 62.5 g/ha [4] of 50% and a pest or weed control at 250 g/ha [4] of 70%. For the same molecule, the pest or weed control at 15.625 g/ha [5] was 10%, the pest or weed control at 62.5 g/ha [5] was 20% and the pest or weed control at 250 g/ha [5] was 20%.

`CN1C[C@H](c2ccc3c(c2)CCO3)[C@@H](C(=O)Nc2cccc(F)c2F)C1=O` (racemic) [Compound 1499] gave a pest or weed control at 15.625 g/ha [1] of 50%, a pest or weed control at 62.5 g/ha [1] of 60% and a pest or weed control at 250 g/ha [1] of 60%. The pest or weed control at 15.625 g/ha [2] was 0%, the pest or weed control at 62.5 g/ha [2] was 0% and the pest or weed control at 250 g/ha [2] was 0%. It also gave a pest or weed control at 15.625 g/ha [3] of 20%, a pest or weed control at 62.5 g/ha [3] of 0% and a pest or weed control at 250 g/ha [3] of 40%. It also gave a plant injury at 15.625 g/ha (corn (Zea mays)) of 10%, a plant injury at 62.5 g/ha (corn (Zea mays)) of 0% and a plant injury at 250 g/ha (corn (Zea mays)) of 80%. It also gave a pest or weed control at 15.625 g/ha [4] of 60%, a pest or weed control at 62.5 g/ha [4] of 60% and a pest or weed control at 250 g/ha [4] of 70%. For the same molecule, the pest or weed control at 15.625 g/ha [5] was 0%, the pest or weed control at 62.5 g/ha [5] was 0% and the pest or weed control at 250 g/ha [5] was 20%.

Molecule `CN1C[C@H](c2ccc3occc3c2)[C@@H](C(=O)Nc2cccc(F)c2F)C1=O` (racemic) [Compound 1500] has a pest or weed control at 15.625 g/ha [1] of 10%, a pest or weed control at 62.5 g/ha [1] of 60% and a pest or weed control at 250 g/ha [1] of 60%. It also gave a pest or weed control at 15.625 g/ha [2] of 0%, a pest or weed control at 62.5 g/ha [2] of 0% and a pest or weed control at 250 g/ha [2] of 0%. For the same molecule, the pest or weed control at 15.625 g/ha [3] was 0%, the pest or weed control at 62.5 g/ha [3] was 0% and the pest or weed control at 250 g/ha [3] was 10%. It also gave a plant injury at 15.625 g/ha (corn (Zea mays)) of 10%, a plant injury at 62.5 g/ha (corn (Zea mays)) of 10% and a plant injury at 250 g/ha (corn (Zea mays)) of 60%. For the same molecule, the pest or weed control at 15.625 g/ha [4] was 40%, the pest or weed control at 62.5 g/ha [4] was 60% and the pest or weed control at 250 g/ha [4] was 60%. The pest or weed control at 15.625 g/ha [5] was 0%, the pest or weed control at 62.5 g/ha [5] was 0% and the pest or weed control at 250 g/ha [5] was 20%.

`Cc1c(NC(=O)[C@@H]2C(=O)N(C)C[C@H]2c2ccc(C(F)(F)F)cc2)ccc(F)c1F` (racemic) [Compound 1502] gave a pest or weed control at 15.625 g/ha [1] of 20%, a pest or weed control at 62.5 g/ha [1] of 60% and a pest or weed control at 250 g/ha [1] of 70%. It also gave a pest or weed control at 15.625 g/ha [2] of 20%, a pest or weed control at 62.5 g/ha [2] of 30% and a pest or weed control at 250 g/ha [2] of 80%. For the same molecule, the pest or weed control at 15.625 g/ha [3] was 0%, the pest or weed control at 62.5 g/ha [3] was 0% and the pest or weed control at 250 g/ha [3] was 20%. It also gave a plant injury at 15.625 g/ha (corn (Zea mays)) of 0%, a plant injury at 62.5 g/ha (corn (Zea mays)) of 30% and a plant injury at 250 g/ha (corn (Zea mays)) of 60%. It also gave a pest or weed control at 15.625 g/ha [4] of 60%, a pest or weed control at 62.5 g/ha [4] of 80% and a pest or weed control at 250 g/ha [4] of 80%. The pest or weed control at 15.625 g/ha [5] was 0%, the pest or weed control at 62.5 g/ha [5] was 10% and the pest or weed control at 250 g/ha [5] was 40%.
